ChEMBL document CHEMBL1201862, “PubChem BioAssay data set” (2004)
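Step 1: Grow cells in 96-well plates. Step 2: Expose to compound for 48 hours at 5 concentrations. Step 3: Interpolate endpoints linearly; if unreached, use highest concentration. GI50 marks 50% less growth.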 The source made the active and inactive calls. No stated cut-off is given here; in the data, active = GI50 up to about 1.1 µM and inactive = higher.

What was measured:
Test in all cases: growth of human tumour cells (NCI), 48 h
[1] = test system: SF-295
[2] = test system: SK-MEL-28
[3] = test system: T47D
[4] = test system: MDA-N
[5] = test system: UACC-257
[6] = test system: NCI-H460
[7] = test system: OVCAR-3
[8] = test system: UO-31
[9] = test system: HCC 2998
[10] = test system: SNB-75
[11] = test system: SK-MEL-2
[12] = test system: A498
[13] = test system: M14
[14] = test system: DU-145
[15] = test system: TK-10
[16] = test system: MOLT-4
[17] = test system: NCI-H522
[18] = test system: KM12
[19] = test system: SK-MEL-5
[20] = test system: HOP-92

SMILES: C/C=C/C(C#N)(/C=C/c1ccccc1)OP1(=O)OC(c2ccccc2)C(C)N1C (stereo not given)
- GI50 [1]: 16.3 µM (inactive)
- GI50 [2]: 17.1 µM (inactive)
- GI50 [3]: 20.7 µM (inactive)
- GI50 [4]: 20.3 µM (inactive)
- GI50 [5]: 19.1 µM (inactive)
- GI50 [6]: 17.9 µM (inactive)
- GI50 [7]: 19.5 µM (inactive)
- GI50 [8]: 17.8 µM (inactive)
- GI50 [9]: 14 µM (inactive)
- GI50 [10]: 20.5 µM (inactive)
- GI50 [11]: 18.6 µM (inactive)
- GI50 [12]: 20.1 µM (inactive)
- GI50 [13]: 20 µM (inactive)
- GI50 [14]: 30 µM (inactive)
- GI50 [15]: 19.9 µM (inactive)
- GI50 [16]: 10.9 µM (inactive)
- GI50 [17]: 20.7 µM (inactive)
- GI50 [18]: 19 µM (inactive)
- GI50 [19]: 16.9 µM (inactive)
- GI50 [20]: 14.6 µM (inactive)

SMILES: O=C1CCC2c3ccccc3NCN12 (stereo not given)
- GI50 [1]: > 100 µM (inactive)
- GI50 [2]: > 100 µM (inactive)
- GI50 [3]: > 100 µM (inactive)
- GI50 [4]: > 100 µM (inactive)
- GI50 [5]: > 100 µM (inactive)
- GI50 [6]: > 100 µM (inactive)
- GI50 [7]: > 100 µM (inactive)
- GI50 [8]: > 100 µM (inactive)
- GI50 [9]: > 100 µM (inactive)
- GI50 [10]: > 100 µM (inactive)
- GI50 [11]: > 100 µM (inactive)
- GI50 [12]: > 100 µM (inactive)
- GI50 [13]: > 100 µM (inactive)
- GI50 [14]: > 100 µM (inactive)
- GI50 [15]: > 100 µM (inactive)
- GI50 [16]: > 100 µM (inactive)
- GI50 [17]: > 100 µM (inactive)
- GI50 [18]: > 100 µM (inactive)
- GI50 [19]: > 100 µM (inactive)
- GI50 [20]: > 100 µM (inactive)

SMILES: O=C1Cc2c(-c3cccs3)cc(-c3ccccc3)nc2-c2ccccc2N1
- GI50 [1]: 47.4 µM (inactive)
- GI50 [2]: > 100 µM (inactive)
- GI50 [3]: 26.4 µM (inactive)
- GI50 [4]: 21.8 µM (inactive)
- GI50 [5]: > 100 µM (inactive)
- GI50 [6]: 24 µM (inactive)
- GI50 [7]: 33.4 µM (inactive)
- GI50 [8]: > 100 µM (inactive)
- GI50 [9]: 47.3 µM (inactive)
- GI50 [10]: 0.0441 µM (active)
- GI50 [11]: 86.3 µM (inactive)
- GI50 [12]: > 100 µM (inactive)
- GI50 [13]: 28.2 µM (inactive)
- GI50 [14]: > 100 µM (inactive)
- GI50 [15]: > 100 µM (inactive)
- GI50 [16]: > 100 µM (inactive)
- GI50 [17]: 27.8 µM (inactive)
- GI50 [18]: 14 µM (inactive)
- GI50 [19]: 19.5 µM (inactive)
- GI50 [20]: > 100 µM (inactive)

SMILES: COc1ccc(/C=N/n2c(-c3ccccc3)n[nH]c2=O)c(OC)c1
- GI50 [1]: 32.7 µM (inactive)
- GI50 [2]: > 100 µM (inactive)
- GI50 [3]: 50 µM (inactive)
- GI50 [4]: > 100 µM (inactive)
- GI50 [5]: > 100 µM (inactive)
- GI50 [6]: 51.1 µM (inactive)
- GI50 [7]: 79.6 µM (inactive)
- GI50 [8]: 24.4 µM (inactive)
- GI50 [9]: > 100 µM (inactive)
- GI50 [10]: 27 µM (inactive)
- GI50 [11]: 48.2 µM (inactive)
- GI50 [12]: 31.6 µM (inactive)
- GI50 [13]: 98.2 µM (inactive)
- GI50 [14]: > 100 µM (inactive)
- GI50 [15]: 27 µM (inactive)
- GI50 [16]: > 100 µM (inactive)
- GI50 [17]: > 52.2 µM (inactive)
- GI50 [18]: 45.8 µM (inactive)
- GI50 [19]: > 68.9 µM (inactive)
- GI50 [20]: 36.5 µM (inactive)

SMILES: CN(CCCN1CCCC1)CCCN(C)C(=O)Cc1ccc(Cl)c(Cl)c1
- GI50 [1]: 17.7 µM (inactive)
- GI50 [2]: 1.99 µM (inactive)
- GI50 [3]: 21.2 µM (inactive)
- GI50 [4]: 4.22 µM (inactive)
- GI50 [5]: 2.55 µM (inactive)
- GI50 [6]: 16.3 µM (inactive)
- GI50 [7]: 27 µM (inactive)
- GI50 [8]: 4.69 µM (inactive)
- GI50 [9]: 5.68 µM (inactive)
- GI50 [10]: 18.5 µM (inactive)
- GI50 [11]: 13.5 µM (inactive)
- GI50 [12]: 14.5 µM (inactive)
- GI50 [13]: 5.47 µM (inactive)
- GI50 [14]: 43.9 µM (inactive)
- GI50 [15]: 16.2 µM (inactive)
- GI50 [16]: 13.2 µM (inactive)
- GI50 [17]: 15.7 µM (inactive)
- GI50 [18]: 18.7 µM (inactive)
- GI50 [19]: 15.3 µM (inactive)
- GI50 [20]: 8.63 µM (inactive)
